Usually IC50 stands for the concentration needed to halve the response being measured.

13 molecules from patent US8324186B2, “4-azetidinyl-1-heteroatom linked-cyclohexane antagonists of CCR2” (Janssen Pharmaceutica N.V., priority 2009, dated 2012) can be followed below.

In the experiment the target is T1, CCR2 (Homo sapiens, UniProt P41597).
T1 construct: host or cells: THP-1 human monocytic cells
T1 sequence (P41597 whole entry): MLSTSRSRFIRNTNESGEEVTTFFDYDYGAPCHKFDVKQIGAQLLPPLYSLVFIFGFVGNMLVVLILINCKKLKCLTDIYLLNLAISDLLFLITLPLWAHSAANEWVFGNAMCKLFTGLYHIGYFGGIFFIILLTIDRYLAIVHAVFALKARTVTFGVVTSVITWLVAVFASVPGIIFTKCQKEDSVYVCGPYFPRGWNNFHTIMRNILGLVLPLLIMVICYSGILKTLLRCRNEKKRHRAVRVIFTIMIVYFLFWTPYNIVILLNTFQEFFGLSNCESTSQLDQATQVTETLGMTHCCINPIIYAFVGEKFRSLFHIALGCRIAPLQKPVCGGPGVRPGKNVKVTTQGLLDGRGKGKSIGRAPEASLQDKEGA
The experiment in a line: MCP-1 Receptor Binding Assay in THP-1 Cells (125I-MCP-1 displacement). To be noted: 0.5 nM 125I labeled MCP-1, 2 hours at 30° C., read-out: CCR2 Binding, Inhibition of MCP-1 Binding IC50. The protocol: Compounds of the invention were subjected to various representative biological tests. The results of these tests are intended to illustrate the invention in a non-limiting fashion. MCP-1 Receptor Binding Assay in THP-1 Cells
Human monocytic cell line THP-1 cells were obtained from American Type Culture Collection (Manassas, Va., USA). The THP-1 cells were grown in RPMI-1640 (RPMI: Roswell Park Memorial Institute Medium-cell culture growth media) supplemented with 10% fetal bovine serum in a humidified 5% CO2 atmosphere at 37° C. The cell density was maintained […].
THP-1 (cells were incubated with 0.5 nM ^125I labeled MCP-1 (Perkin-Elmer Life Sciences, Inc. Boston, Mass.) in the presence of varying concentrations of either unlabeled MCP-1 (R & D Systems, Minneapolis, Minn.) or test compound for 2 hours at 30° C. in a 96 well plate. Cells were then harvested onto a filter plate, dried, and 20 μL of Microscint 20 was added to each well. Plates were counted in a TopCount NXT, Microplate Scintillation & Luminescence Counter (Perkin-Elmer Life Sciences, Inc. Boston, Mass.). Blank values (buffer only) were subtracted from all values and drug treated values were compared to vehicle treated values. 1 μM cold MCP-1 was used for nonspecific binding.
Table 1 lists IC50 values for inhibition of MCP-1 binding to CCR2 obtained for test compounds of the invention. Where an IC50 value was not obtained for a particular compound, the percent inhibition is provided at a test concentration of 25 μM.
Turning to `C#Cc1ccc(=O)n(C2CCC(N3CC(NC(=O)CNC(=O)c4cccc(C(F)(F)F)c4)C3)CC2)c1` (stereo not shown) [Example 9, N-({1-[4-(5-Ethynyl-2-oxo-2H-pyridin-1-yl)-cyclohexyl]-azetidin-3-ylcarbamoyl}-methyl)-3-trifluoromethyl-benzamide], the IC50 is 1.6 µM.

For the molecule `N#Cc1ccc(=O)n(C2CCC(N3CC(NC(=O)CNC(=O)c4cccc(C(F)(F)F)c4)C3)CC2)c1` (stereo not shown) [Example 10, N-({1-[4-(5-Cyano-2-oxo-2H-pyridin-1-yl)-cyclohexyl]-azetidin-3-ylcarbamoyl}-methyl)-3-trifluoromethyl-benzamide], the IC50 came out at 1 µM.

On to `Cc1ccc(=O)n(C2CCC(N3CC(NC(=O)CNC(=O)c4cccc(C(F)(F)F)c4)C3)CC2)c1` (stereo not shown) [Example 11, N-({1-[4-(5-Methyl-2-oxo-2H-pyridin-1-yl)-cyclohexyl]-azetidin-3-ylcarbamoyl}-methyl)-3-trifluoromethyl-benzamide], for which the IC50 is 0.28 µM.

For `COc1cccnc1OC1CCC(N2CC(NC(=O)CNC(=O)c3cccc(C(F)(F)F)c3)C2)CC1` (stereo not shown) [Example 14, N-({1-[4-(3-Methoxy-pyridin-2-yloxy)-cyclohexyl]-azetidin-3-ylcarbamoyl}-methyl)-3-trifluoromethyl-benzamide], the IC50 was found to be 0.28 µM.

As to `O=C(CNC(=O)c1cccc(C(F)(F)F)c1)NC1CN(C2CCC(n3ccc(=O)cc3)CC2)C1` (stereo not shown) [Example 16, N-({1-[4-(4-Oxo-4H-pyridin-1-yl)-cyclohexyl]-azetidin-3-ylcarbamoyl}-methyl)-3-trifluoromethyl-benzamide], the IC50 was 7.1 µM.

For the molecule `Cc1ccnc(OC2CCC(N3CC(NC(=O)CNC(=O)c4cccc(C(F)(F)F)c4)C3)CC2)c1` (stereo not shown) [Example 19, N-({1-[4-(4-Methyl-pyridin-2-yloxy)-cyclohexyl]-azetidin-3-ylcarbamoyl}-methyl)-3-trifluoromethyl-benzamide], the IC50 turned out to be 0.066 µM.

For `Cc1ccn(C2CCC(N3CC(NC(=O)CNC(=O)c4cccc(C(F)(F)F)c4)C3)CC2)c(=O)c1` (stereo not shown) [Example 20, N-({1-[4-(4-Methyl-2-oxo-2H-pyridin-1-yl)-cyclohexyl]-azetidin-3-ylcarbamoyl}-methyl)-3-trifluoromethyl-benzamide], the IC50 was determined as 0.11 µM.

Consider `O=C(CNC(=O)c1cccc(C(F)(F)F)c1)NC1CN(C2CCC(Oc3cccnn3)CC2)C1` (stereo not shown) [Example 23, N-({1-[4-(Pyridazin-3-yloxy)-cyclohexyl]-azetidin-3-ylcarbamoyl}-methyl)-3-trifluoromethyl-benzamide], for which the IC50 turned out to be 0.41 µM.

Turning to `O=C(CNC(=O)c1cccc(C(F)(F)F)c1)NC1CN(C2CCC(n3cc(I)cn3)CC2)C1` (stereo not shown) [Example 28, N-({1-[4-(4-Iodo-pyrazol-1-yl)-cyclohexyl]-azetidin-3-ylcarbamoyl}-methyl)-3-trifluoromethyl-benzamide], the IC50 was 0.11 µM.

On to `O=C(CNC(=O)c1cccc(C(F)(F)F)c1)NC1CN(C2CCC(Oc3ccc4c(c3)OCO4)CC2)C1` (stereo not shown) [Example 33, N-({1-[4-(Benzo[1,3]dioxol-5-yloxy)-cyclohexyl]-azetidin-3-ylcarbamoyl}-methyl)-3-trifluoromethyl-benzamide], for which the IC50 turned out to be 0.41 µM.

For `O=C(CNC(=O)c1cccc(C(F)(F)F)c1)NC1CN(C2CCC(NC(=O)c3ccc4c(c3)OCO4)CC2)C1` (stereo not shown) [Example 35, Benzo[1,3]dioxole-5-carboxylic acid (4-{3-[2-(3-trifluoromethyl-benzoylamino)-acetylamino]-azetidin-1-yl}-cyclohexyl)-amide], the IC50 is 0.43 µM.

`O=C(CNC(=O)c1cccc(C(F)(F)F)c1)NC1CN(C2CCC(NC(=O)Nc3ccc4c(c3)OCO4)CC2)C1` (stereo not shown) [Example 36, N-({1-[4-(3-Benzo[1,3]dioxol-5-yl-ureido)-cyclohexyl]-azetidin-3-ylcarbamoyl}-methyl)-3-trifluoromethyl-benzamide]: the IC50 was determined as 1.5 µM.

Take `Cc1ccc(C)n1C1CCC(N2CC(NC(=O)CNC(=O)c3cccc(C(F)(F)F)c3)C2)CC1` (stereo not shown) [Example 37, N-({1-[4-(2,5-Dimethyl-pyrrol-1-yl)-cyclohexyl]-azetidin-3-ylcarbamoyl}-methyl)-3-trifluoromethyl-benzamide]: the IC50 stood at 9 µM.
